Patent US20240082221A1, “COMPOSITIONS AND METHODS FOR THE IDENTIFICATION OF COMPOUNDS THAT PROTECT AGAINST LIPOFUSCIN CYTOTOXICITY” (priority 2021, published 2024)
Where two headings read alike, the source gives them in different places.

Tests used:
ARPE-19 cells = tested on: ARPE-19 cells
Experimental: Cell Viability Assay. […] 1× AlamarBlue solution prepared in OptiMEM was used to replace the media supernatant and the plate's fluorescence was determined at 555 nm excitation/585 nm emission with a SpectraMax M (Molecular Devices, CA, USA), after 1 h. […] The exact timing of appearance of far-red (DRAQ7=plasma membrane leakage) and blue (NUC405=caspase 3 activation) fluorescence signals was critical to differentiate apoptosis and necrosis from secondary events, such as membrane damage and generalized proteolytic activation during the late phase of apoptosis and necrosis, respectively.
Real time monitoring of necrotic and apoptotic cell-death. Cell-death assay to study Lipofuscin's dark toxicity was performed. 90% confluent ARPE-19 or hfRPE were incubated overnight in serum free media supplemented with indicated LB concentration. Viability was assessed at 24 hrs by AlamarBlue®, or microscopy with NUC405/DRAQ7. Real time monitoring of necrotic (red) and apoptotic (blue) cell-death was performed by automated fluorescence microscopy. The exact timing of appearance of far-red (DRAQ7=plasma membrane leakage) and blue (NUC405=caspase 3 activation) fluorescence signals was critical to differentiate apoptosis and necrosis from secondary events, such as membrane damage and generalized proteolytic activation during the late phase of apoptosis and necrosis, respectively.
Chemical inhibitors. Chemical inhibitors used in this study are described in FIG. 12.

hfRPE = assay: Light-independent lipofuscin cell-death/viability assay in hfRPE; format: cell-based, Human
Experimental: Cell culture. Human retinal pigment epithelium (ARPE-19) cells were obtained from ATCC and were cultured in Dulbecco's modified Eagle's medium (DMEM) supplemented with 10% FBS and 1% penicillin/streptomycin. Cells were kept in an incubator with 5% C02 and 95% humidified air at 37° C. Human fetal RPE (hfRPE) cells from donors at 16 to 18 weeks gestation were cultured at 37° C., 5% C02 in RPE medium. To grow polarized hfRPE cells, the cells were seeded in 12 well transwell plate in 1% RPE medium with Rock kinase inhibitor for the first week. After the first week, cells were cultured in normal 1% RPE medium for 3 weeks. Cells were used in passage 1.
Real time monitoring of necrotic and apoptotic cell-death.

pMLKL = assay: Fluorescence microscopy of pMLKL plasma membrane translocation in ARPE-19 monolayers; format: cell-based, Human; conditions: ARPE-19 with A2E or ATRD
Text: Chronic accumulation of polymeric pMLKL could account for progressive damage in pigmented retinas as they amass LF.

phospho-MLKL = assay: Intravitreal treatment of DKO mice, phospho-MLKL immunostaining of retina; format: in vivo, ABCA4−/− RDH8−/− double knock-out mice (DKO)
Experimental: Animals. Pigmented ABCA4^−/− RDH8^−/− double knock-out mice (DKO), free of rd8 mutation, were purchased from Jackson laboratories and every 10 generations were in house backcrossed to the C57BL6J control strain, to prevent genetic drifts. Genotyping was performed at Transnetyx (Memphis, TN). Only mice with ABCA4, RDH8, RPE65-Leu450 but no crb1 mutations (retinal degeneration slow) were maintained in the colony. Controls C57BL/6J (Rpe65-Leu450, crb1negative) were also Jackson's lab. All mice were housed at Weill Cornell Medicine's animal facility under a 12 h light (˜10 lux)/12 h dark cycle environment or under complete darkness. Experimental manipulations in the dark were done under dim red light transmitted through a Kodak No. 1 safelight filter (transmittance >560 nm). No retinal degeneration or necroptosis markers were appreciably detected in 20 months or older C57BL6/N (Rpe65-Met450, crb1 positive) obtained from the NAI/NIH. All animal procedures and experiments were approved by the Animal Care and Use Committee of Weill Cornell Medical College in agreement with the guidelines established by the NIH Office of Laboratory Animal Welfare and the Association of Research for Vision and Ophthalmology (ARVO) statement for the use of animals in ophthalmic research.
RPE and Neural retina flat mounts. Mouse eyes were enucleated and placed in 4% PFA in PBS for 1 h at room temperature. After fixing, a 23G needle was used to make a hole at the limbus area and iris scissors used to cut around the circumference of the limbus, remove the cornea, iris and lens, separate the neuronal retina and sclera by micro-forceps. Neuronal retina and RPE layer were dissected out and incubated with blocking buffer (1% BSA and 0.3% Triton-X-100 in PBS) for at least 20 min. Primary antibodies were added to the blocking buffer and kept at 4° C. overnight. Retina and RPE layer were washed and incubated with secondary antibodies for at least 30 min at room temperature, then washed with PBS three times. Under the dissection microscope, retina or RPE layer was cut into a four-leaf clover shape and mount on the slides in mount medium (EMS glycerol mounting medium with DAPI and DABCO, cat. No. 17989-61). Slides were stored at 4° C. until imaging.
Cryosections and Immunofluorescence staining. Mouse eyes were fixed with 4% PFA and penetrated with 30% sucrose overnight at 4° C., then cryopreserved in Tissue-Tek OCT compound (Sakura Finetek, Torrance, CA, USA) and cut into 15 μm sections. Sections were blocked with 1% BSA and 0.1% Triton-X-100 PBS, and then immunofluorescence staining was performed using standard methods and the appropriate dilutions of primary antibodies against p- p-MLKL (cell signaling), XBP1s (Biogend), Iba-1 (Abcam), CD11b (Millipore), Lamp2 (hybridoma bank), CellRox and DRAQ7 (Invitrogen), Rhodopsin (Abcam), phalloidin-CF660 (Biotium, cat.no. 0052), Hoechst33324, caspase3 (clone9664, Cell signaling). Subsequently, slides were incubated with Alexa-647, Alexa-594 secondary antibodies, and counterstained with Hoechst33324. Negative controls were included in each staining, and slides were mounted with anti-fade mount medium. Slides were stored at 4° C. before analysis on SD microscope using Zen software. For paraffin sections, mouse eyes were embedded in paraffin and cut into 5-μm sections. […]
Pharmacological treatment of mice. […] The exact volume of Mock reagent or Kira6 was determined by 10 μl Hamilton syringe. […]

XBP1s = assay: qPCR of XBP1 splicing in hfRPE; format: cell-based, Human
Text: RNA isolation and quantitative PCR. Total RNA was extracted from cultured cells or mouse eye RPE layer using the RNeasy Mini kit (QIAGEN). The total RNA was digested with deoxyribonuclease I to prevent amplification of genomic DNA. The total RNA then was reversed transcribed using High-Capacity cDNA Reverse Transcription Kit (ThermoFisher Scientific, cat.no. 4368814) and analyzed gene expression using SYBR Green Master Mix (ThermoFisher Scientific, cat.no. 4472908) in an Applied Biosystems StepOne real time PCR machine. GAPDH was used as a reference gene. […] After genes were amplified by real time PCR, some of the PCR products were separated by 2.5% agarose gel.

| SMILES | protection against light-independent LF (A2E/ATRD) cytotoxicity, RPE survival (ARPE-19 cells) | survival to LF in hfRPE (hfRPE) | effect on LF-induced pMLKL plasma membrane localization (pMLKL) | necroptosis, intracellular and plasma membrane pMLKL labelling in RPE flat mounts (phospho-MLKL; 26 month old DKO mice, intraocular, a week later) | pMLKL/XBP1s double positive cells (RPE and microglia) (phospho-MLKL; demelanized paraffin cross-sections, 20 month old DKOs, control 33%) | protection against light-independent LF (A2E/ATRD) cytotoxicity, RPE survival (ARPE-19 cells; ARPE-19, inhibitor pretreatment, A2E/ATRD 24 h, no light, AlamarBlue) | protection against light-independent LF (A2E/ATRD) cytotoxicity, RPE survival (ARPE-19 cells; ARPE-19, inhibitor pretreatment, A2E/ATRD 24 h, no light, AlamarBlue, listed as Nec-7) | effect on LF-induced XBP1 splicing in hfRPE (XBP1s) | membrane and cytosolic pMLKL labeling in RPE flat mounts (phospho-MLKL; 12 month old DKOs, single intraocular injection, analyzed one week later) | membrane and cytosolic phospho-MLKL staining in RPE flat mounts (phospho-MLKL; 26-month-old DKO mice, 2 μl intraocular, a week later) | phospho-MLKL (necroptosis) labeling in neuroretina-flat mounts (phospho-MLKL; DKO mice, intraocular, 1 week earlier) |
| --- | --- | --- | --- | --- | --- | --- | --- | --- | --- | --- | --- |
| CC(C)(C)c1nc(-c2ccc(NC(=O)Nc3cccc(C(F)(F)F)c3)c3ccccc23)c2c(N)nccn12 [KIRA6] | sufficient to protect against necroptosis by LF | promote survival to LF | inhibition of pMLKL plasma membrane translocation | abrogated necroptosis | 4% | – | – | – | – | – | – |
| N=C1S/C(=C\c2cn[nH]c2-c2ccc(F)cc2)C(=O)N1c1nccs1 [Nec7, Necrostatin 7] | – | promote survival to LF | effectively reverted the pMLKL membrane localization pattern | – | – | highly protective | protects against necroptosis by lipofuscin | prevention | reduced to undetectable levels | reduced membrane and cytosolic phospho-MLKL staining to undetectable levels | significantly reduced |
